Test system: human kinome
Assay: KinomeScan competitive binding assay across the kinome
Conditions: 10 μM

## COc1cc2c(Oc3ccc(NC(=O)C4(C(=O)Nc5ccc(F)cc5)CC4)cc3F)ccnc2cc1OCCCN1CCOCC1 [foretinib]
  number of kinases bound (percent of control value of 35 or less): 133 kinases
